SMILES strings stand for the structures. The source made the active and inactive calls. No rule for the calls is given here.

A word on the IC50: it is the midpoint of a concentration-inhibition curve.

This test addresses Luciferin 4-monooxygenase (Photinus pyralis) (UniProt P08659). As to the kind of experiment: firefly luciferase inhibitor potency, HSP90 counter-screen, dose response, artefact control for HSP90 inhibitor project, biochemical, luminescence (AID 1912). To be noted: purified firefly luciferase, luminescence inhibition. (In general: A counterscreen serves to expose hits that act by an unwanted route or on another target.)

Chain of Luciferin 4-monooxygenase (Photinus pyralis) (P08659 whole entry, looked up): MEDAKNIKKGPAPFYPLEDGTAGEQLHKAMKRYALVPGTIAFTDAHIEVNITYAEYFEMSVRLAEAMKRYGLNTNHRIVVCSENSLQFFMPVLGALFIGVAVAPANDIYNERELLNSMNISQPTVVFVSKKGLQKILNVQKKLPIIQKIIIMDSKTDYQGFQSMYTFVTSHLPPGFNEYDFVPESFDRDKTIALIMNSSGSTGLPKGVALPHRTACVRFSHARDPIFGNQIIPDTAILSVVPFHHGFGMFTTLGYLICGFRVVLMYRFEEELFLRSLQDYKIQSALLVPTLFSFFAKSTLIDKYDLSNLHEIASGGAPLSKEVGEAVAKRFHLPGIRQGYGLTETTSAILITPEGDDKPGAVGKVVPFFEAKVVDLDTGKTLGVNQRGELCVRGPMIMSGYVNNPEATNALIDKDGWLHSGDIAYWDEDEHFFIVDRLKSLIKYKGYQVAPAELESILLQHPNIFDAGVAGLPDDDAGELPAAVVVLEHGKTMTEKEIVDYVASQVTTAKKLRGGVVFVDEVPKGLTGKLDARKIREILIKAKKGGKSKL

Consider `CN(C)c1ccc(C2Nc3cccc4cccc(c34)N2)cc1`, for which the IC50 is > 60 µM (inactive).
The value for `Cc1nc(NC(=O)/C=C/c2ccccc2)sc1C(=O)Nc1ccccc1Cl` was > 60 µM (inactive); that for `CS(=O)(=O)c1ccc(-c2cn3cc(C(=O)O)ccc3n2)cc1` was “inactive”; that for `COC(=O)c1ccccc1OCCCOc1ccc(C=O)cc1OC` was > 60 µM (inactive).
The value for `CCCCn1c(NC(=O)c2ccccc2Cl)c(C#N)c2nc3ccccc3nc21` was > 60 µM (inactive); that for `COC(=O)C1CCN(C(=O)c2ccc3nc(-c4cccc(OC)c4)oc3c2)CC1` was > 60 µM (inactive).
As for `COc1ccc(-c2cc3c(=O)n(CC(=O)NCCCN4CCC(Cc5ccccc5)CC4)ncn3n2)cc1`, the IC50 result was “inactive”.
For `C#CCn1cc(/C=C2\NC(=O)NC2=O)c2ccccc21` the value was > 60 µM (inactive).
For `Cc1cc(NO)nc(-c2ccc(Br)cc2)n1` the value was > 60 µM (inactive); for `COc1cc(/C=N/Nc2ccc(Cl)c(C(=O)O)c2)ccc1OC(=O)c1ccccc1F`, > 60 µM (inactive); for `CCOC(=O)c1ccc(-c2ccc(C=O)o2)cc1`, > 60 µM (inactive).
For `O=C(Cc1ccccc1)N1CCN(S(=O)(=O)c2ccc([N+](=O)[O-])cc2)CC1` the value was > 60 µM (inactive).
As for `Cc1ccccc1NC1=C/C(=N\S(=O)(=O)c2cccs2)c2ccccc2C1=O`, the IC50 is > 20 µM (inactive).
For `C=CCOc1c(CNc2cccc(C(=O)O)c2)cccc1OC` the value was > 60 µM (inactive).
The value for `COc1cc(/C=N/Nc2ccc(Cl)c(C(=O)O)c2)ccc1OC(=O)c1cccs1` was > 60 µM (inactive); that for `CC(=O)CSc1nnc(-c2ccc3c(c2)OCO3)o1` was “inactive”.
For the compound `CCc1ccc(S(=O)(=O)/N=C2\C=C(Nc3cccc(C(=O)O)c3)C(=O)c3ccccc32)cc1`, the IC50 was > 60 µM (inactive).
The value for `C=CCc1ccc(OCc2ccc(C(=O)OC)o2)c(OC)c1` was > 60 µM (inactive); that for `COCC(C)n1c(C)cc(C(=O)Cn2nc(C(=O)O)c3ccccc3c2=O)c1C` (configuration not stated) was > 60 µM (inactive).
The value for `CC(=O)Nc1ccc(NC2=C/C(=N/S(=O)(=O)c3cccs3)c3ccccc3C2=O)cc1` was > 60 µM (inactive); that for `Cc1ccc2oc(=O)c(/C=C(\O)c3cccs3)nc2c1` was > 60 µM (inactive).
For `O=C1C(Nc2ccccc2)=C/C(=N/S(=O)(=O)c2cccs2)c2ccccc21` the value was “inactive”.
Regarding `COC(=O)c1ccc(N/C=C/C(=O)c2ccccc2)cc1`, the IC50 entry is “inactive”.
For `CCOc1ccc(-c2nc(CN3CCCCC3CCn3cccn3)c(C)o2)cc1` (configuration not stated) the value was > 60 µM (inactive); for `O=C(CN1C(=O)c2ccccc2S1(=O)=O)c1ccc2c(c1)OCCCO2`, “inactive”; for `COc1cc(N2Cc3ccccc3C2)ccc1C=O`, > 60 µM (inactive).
The value for `Cc1ccc(/C=C2/C(=O)c3ccc(C(=O)O)cc3C2=O)o1` was > 60 µM (inactive); that for `O=c1oc2ccc(Cl)cc2nc1/C=C(\O)c1cccs1` was > 60 µM (inactive).
The value for `CCOC(=O)c1sc(NC(=O)c2ccc(C)o2)nc1C` was > 60 µM (inactive).
On to `CCOC(=O)C1=C(c2ccc(OC)cc2)C(=O)c2ccccc2C1=O`, for which the IC50 is > 60 µM (inactive).
Take `COc1ccc(C(=O)Oc2ccc(/C=N/Nc3ccc(Cl)c(C(=O)O)c3)cc2OC)cc1`: the IC50 is > 60 µM (inactive).
For `O=C(O)c1cccc(NC(=S)NC(NC(=O)c2cccc([N+](=O)[O-])c2)C(Cl)(Cl)Cl)c1` (configuration not stated) the value was > 60 µM (inactive); for `O=C1c2cc(F)ccc2-n2c1nc1ccccc1c2=O`, > 60 µM (inactive); for `COC(=O)c1ccc(COc2ccc3c(C)c(C)c(=O)oc3c2)o1`, > 60 µM (inactive).
The value for `O=C(CN1C(=O)c2ccccc2S1(=O)=O)c1ccc2c(c1)OCCO2` was > 60 µM (inactive); that for `CCOC(=O)c1csc(NC(=O)c2cc3ccccc3o2)n1` was > 60 µM (inactive); that for `CC(=O)Oc1ccccc1/C=C/c1nc2ccccc2c(=O)o1` was > 60 µM (inactive).
For `COC(=O)c1cc(C)nc2c1C(=O)C(=O)C=C2N1CCOCC1` the value was > 20 µM (inactive); for `COC(=O)C[C@]1(C(=O)OC)CN(C#N)N(c2ccc(Cl)cc2)C12c1ccccc1-c1ccccc12`, > 60 µM (inactive).
As for `CC(=O)CSc1ccc(-c2nc3ccccc3[nH]2)cn1`, the IC50 is > 60 µM (inactive).
The value for `Cc1ccc(C(=O)CSc2ccccc2C(=O)O)cc1` was “inactive”.
The value for `O=[N+]([O-])/C=C/c1ccc2c(ccn2Cc2ccccc2)c1` was > 60 µM (inactive); that for `O=c1oc2ccc(Cl)cc2nc1/C=C(\O)c1ccco1` was > 60 µM (inactive); that for `COc1cc(/C=N/Nc2ccc(Cl)c(C(=O)O)c2)ccc1OC(=O)c1ccc(F)cc1` was > 60 µM (inactive).
Consider `COc1ccc(N(/N=C2\Sc3ccccc3C2=O)C(C)=O)cc1`, for which the IC50 was > 60 µM (inactive).
For `COC(=O)c1ccc(COc2ccc3c(c2)CCC3)o1` the value was > 60 µM (inactive); for `CC1CCN(c2ccc(-c3cccc(NC(=O)C(F)(F)F)c3)nn2)CC1`, > 60 µM (inactive).
With `O=C(CSc1ncccc1C(=O)O)c1ccc2ccccc2c1`, the IC50 entry is “inactive”.
`CCN(CC)c1ccc(SS(=O)(=O)O)cc1`: the IC50 was > 60 µM (inactive).
As for `[O-]/[N+](=C\c1ccco1)c1ccc(Cl)cc1`, the IC50 was > 60 µM (inactive).
The value for `O=C(O)c1cc(N/N=C/c2cccnc2)ccc1Cl` was > 60 µM (inactive).
The value for `COc1cccc(-c2cc3nc4c(c(NCC(C)(C)CN(C)C)n3n2)CCCC4)c1` was > 60 µM (inactive).
As to `COc1ccc(-c2cn3c(C)c(C(=O)Nc4cccc(C)n4)sc3n2)cc1`, the IC50 entry was “inactive”.
For `CCCCOc1ccc(-c2cc(C(=O)NNC(=S)NCC)c3ccccc3n2)cc1` the value was “inactive”; for `CCOc1ccc(-c2nc(CN(Cc3ccccc3)C[C@@H]3CCC(=O)N3)c(C)o2)cc1`, > 60 µM (inactive).
For `CCOC(=O)c1csc(NC(=O)c2ccc3c(c2)OCCO3)n1` the value was > 60 µM (inactive).
For `Cc1cc(C)c2nc(N3CCC(C(=O)NCCCN4CC(C)CC(C)C4)CC3)sc2c1` (configuration not stated) the value was > 60 µM (inactive).
On to `Cc1cccc(N(O)C(=O)Nc2cccc(Cl)c2)c1`, for which the IC50 was > 60 µM (inactive).
For `CC(=O)Nc1ccc(OS(=O)(=O)c2ccc([N+](=O)[O-])cc2)cc1` the value was > 60 µM (inactive).
For `C=CCOC(=O)c1sc(NC(=O)c2ccc(OC)cc2)nc1C` the value was > 60 µM (inactive); for `COc1ccccc1Nc1nn2c(=O)c3ccc(C(=O)NCc4cccnc4)cc3nc2s1`, > 60 µM (inactive).
For `Cc1ccccc1NC1=C/C(=N\S(=O)(=O)c2ccc(C(=O)O)cc2)c2ccccc2C1=O` the value was “inactive”.

The values above are taken from PubChem BioAssay AID1912 (The Scripps Research Institute Molecular Screening Center, 2009).
